Values joined by “and” are separate entries in the source; they are usually repeats but may differ in a detail not shown here. Equal entries are not always repeated.
What was measured:
DMPK2 = DMPK2 (Homo sapiens, UniProt Q6DT37); assay: biochemical; conditions: read-out: % enzyme activity, 1 μM; Run 1, Run 2
FGFR1 = FGFR1 (Homo sapiens, UniProt P11362); assay: biochemical; conditions: read-out: % enzyme activity, 1 μM; Run 1, Run 2
SRPK2 = SRPK2 (Homo sapiens, UniProt P78362); assay: biochemical; conditions: read-out: % enzyme activity, 1 μM; Run 1, Run 2
RIPK5 = biological target: T1, RIPK5 (Homo sapiens, UniProt Q6XUX3); conditions: 1 μM; Run 1, Run 2
T1 sequence (Q6XUX3 1-929): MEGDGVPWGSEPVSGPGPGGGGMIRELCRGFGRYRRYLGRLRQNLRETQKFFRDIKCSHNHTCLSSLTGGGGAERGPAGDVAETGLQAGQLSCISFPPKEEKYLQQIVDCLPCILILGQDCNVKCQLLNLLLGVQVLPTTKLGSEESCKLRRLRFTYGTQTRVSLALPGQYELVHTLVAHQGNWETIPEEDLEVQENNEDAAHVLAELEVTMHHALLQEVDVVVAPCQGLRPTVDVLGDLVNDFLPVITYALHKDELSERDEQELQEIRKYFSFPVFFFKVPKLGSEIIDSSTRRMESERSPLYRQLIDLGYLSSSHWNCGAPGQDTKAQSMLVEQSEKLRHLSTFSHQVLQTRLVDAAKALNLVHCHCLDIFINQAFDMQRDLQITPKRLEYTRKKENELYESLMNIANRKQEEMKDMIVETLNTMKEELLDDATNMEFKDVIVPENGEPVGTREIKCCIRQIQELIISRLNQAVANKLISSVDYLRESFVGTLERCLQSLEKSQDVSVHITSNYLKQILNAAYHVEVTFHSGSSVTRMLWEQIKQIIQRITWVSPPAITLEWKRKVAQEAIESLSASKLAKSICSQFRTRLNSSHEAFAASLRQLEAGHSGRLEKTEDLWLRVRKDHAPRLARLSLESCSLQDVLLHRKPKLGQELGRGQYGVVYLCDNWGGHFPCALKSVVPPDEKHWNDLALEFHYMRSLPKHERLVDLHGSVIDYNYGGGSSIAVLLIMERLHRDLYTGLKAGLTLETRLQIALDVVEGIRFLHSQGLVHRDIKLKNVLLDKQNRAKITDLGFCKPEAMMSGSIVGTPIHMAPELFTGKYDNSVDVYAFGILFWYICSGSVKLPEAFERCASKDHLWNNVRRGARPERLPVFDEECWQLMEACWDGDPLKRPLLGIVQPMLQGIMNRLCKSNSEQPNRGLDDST

EPHA5 = EPHA5 (Homo sapiens, UniProt P54756); assay: biochemical; conditions: read-out: % enzyme activity, 1 μM; Run 1, Run 2
EPHA6 = biological target: T2, EPHA6 (Homo sapiens, UniProt Q9UF33); assay: biochemical; conditions: read-out: % enzyme activity, 1 μM; Run 1, Run 2
T2 sequence (Q9UF33 23-1036): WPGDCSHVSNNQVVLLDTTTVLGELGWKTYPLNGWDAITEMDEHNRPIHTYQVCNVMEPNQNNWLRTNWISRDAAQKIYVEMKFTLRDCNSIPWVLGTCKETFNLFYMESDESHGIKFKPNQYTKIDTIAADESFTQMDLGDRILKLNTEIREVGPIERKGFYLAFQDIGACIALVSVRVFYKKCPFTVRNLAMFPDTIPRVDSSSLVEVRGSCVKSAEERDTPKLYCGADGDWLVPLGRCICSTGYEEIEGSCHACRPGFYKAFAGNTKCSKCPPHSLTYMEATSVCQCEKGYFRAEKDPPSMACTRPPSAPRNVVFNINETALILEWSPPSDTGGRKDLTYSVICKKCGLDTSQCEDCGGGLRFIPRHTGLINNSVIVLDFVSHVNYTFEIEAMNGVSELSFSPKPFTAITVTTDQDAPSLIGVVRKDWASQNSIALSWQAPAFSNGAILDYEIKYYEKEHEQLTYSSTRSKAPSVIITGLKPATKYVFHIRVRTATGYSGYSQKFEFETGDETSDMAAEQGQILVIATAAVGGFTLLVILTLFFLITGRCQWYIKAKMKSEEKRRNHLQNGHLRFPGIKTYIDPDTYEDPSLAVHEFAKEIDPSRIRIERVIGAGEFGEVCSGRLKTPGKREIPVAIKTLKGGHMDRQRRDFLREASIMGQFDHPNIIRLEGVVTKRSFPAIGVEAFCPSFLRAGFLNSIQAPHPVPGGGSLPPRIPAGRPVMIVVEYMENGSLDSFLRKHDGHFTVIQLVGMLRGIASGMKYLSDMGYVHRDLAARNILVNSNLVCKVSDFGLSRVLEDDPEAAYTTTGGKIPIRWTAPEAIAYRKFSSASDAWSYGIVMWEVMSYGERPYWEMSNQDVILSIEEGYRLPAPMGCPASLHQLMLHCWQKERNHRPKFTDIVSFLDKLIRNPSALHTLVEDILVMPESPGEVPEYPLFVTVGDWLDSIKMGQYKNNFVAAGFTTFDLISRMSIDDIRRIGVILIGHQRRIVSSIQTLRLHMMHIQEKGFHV

TIE2/TEK = TIE2/TEK (Homo sapiens, UniProt Q02763); assay: biochemical; conditions: read-out: % enzyme activity, 1 μM; Run 1, Run 2
TIE2/TEK, sequence (Q02763 23-1124): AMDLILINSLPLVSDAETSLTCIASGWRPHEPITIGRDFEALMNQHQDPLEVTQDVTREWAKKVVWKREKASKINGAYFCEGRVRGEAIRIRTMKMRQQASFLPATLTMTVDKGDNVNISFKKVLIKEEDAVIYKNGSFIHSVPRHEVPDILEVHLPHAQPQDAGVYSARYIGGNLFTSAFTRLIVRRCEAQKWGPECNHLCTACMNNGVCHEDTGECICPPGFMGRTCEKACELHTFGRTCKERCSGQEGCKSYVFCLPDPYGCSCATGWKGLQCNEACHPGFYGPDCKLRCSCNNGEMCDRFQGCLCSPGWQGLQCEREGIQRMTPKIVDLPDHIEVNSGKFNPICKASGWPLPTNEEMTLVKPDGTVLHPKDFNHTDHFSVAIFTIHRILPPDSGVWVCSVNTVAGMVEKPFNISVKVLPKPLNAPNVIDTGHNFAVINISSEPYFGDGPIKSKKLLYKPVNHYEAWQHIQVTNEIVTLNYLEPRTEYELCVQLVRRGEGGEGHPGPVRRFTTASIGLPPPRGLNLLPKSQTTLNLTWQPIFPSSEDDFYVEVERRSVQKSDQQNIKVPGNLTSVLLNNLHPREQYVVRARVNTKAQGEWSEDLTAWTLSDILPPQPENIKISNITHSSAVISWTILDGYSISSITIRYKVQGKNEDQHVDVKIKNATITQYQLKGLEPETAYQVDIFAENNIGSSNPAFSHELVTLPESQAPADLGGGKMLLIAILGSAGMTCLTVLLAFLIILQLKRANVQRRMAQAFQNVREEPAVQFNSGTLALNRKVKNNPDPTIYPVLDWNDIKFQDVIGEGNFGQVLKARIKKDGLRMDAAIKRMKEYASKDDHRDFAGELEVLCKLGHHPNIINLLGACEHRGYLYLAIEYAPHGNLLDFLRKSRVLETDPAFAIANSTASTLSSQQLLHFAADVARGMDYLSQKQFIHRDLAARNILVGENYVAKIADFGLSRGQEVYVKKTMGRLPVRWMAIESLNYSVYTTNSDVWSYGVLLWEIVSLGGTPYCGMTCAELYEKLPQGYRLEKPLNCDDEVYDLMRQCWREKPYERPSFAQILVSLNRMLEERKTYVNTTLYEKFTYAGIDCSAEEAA

FGFR2 = FGFR2 (Homo sapiens, UniProt P21802); conditions: 1 μM; Run 1, Run 2
FGFR2, sequence (P21802 22-821): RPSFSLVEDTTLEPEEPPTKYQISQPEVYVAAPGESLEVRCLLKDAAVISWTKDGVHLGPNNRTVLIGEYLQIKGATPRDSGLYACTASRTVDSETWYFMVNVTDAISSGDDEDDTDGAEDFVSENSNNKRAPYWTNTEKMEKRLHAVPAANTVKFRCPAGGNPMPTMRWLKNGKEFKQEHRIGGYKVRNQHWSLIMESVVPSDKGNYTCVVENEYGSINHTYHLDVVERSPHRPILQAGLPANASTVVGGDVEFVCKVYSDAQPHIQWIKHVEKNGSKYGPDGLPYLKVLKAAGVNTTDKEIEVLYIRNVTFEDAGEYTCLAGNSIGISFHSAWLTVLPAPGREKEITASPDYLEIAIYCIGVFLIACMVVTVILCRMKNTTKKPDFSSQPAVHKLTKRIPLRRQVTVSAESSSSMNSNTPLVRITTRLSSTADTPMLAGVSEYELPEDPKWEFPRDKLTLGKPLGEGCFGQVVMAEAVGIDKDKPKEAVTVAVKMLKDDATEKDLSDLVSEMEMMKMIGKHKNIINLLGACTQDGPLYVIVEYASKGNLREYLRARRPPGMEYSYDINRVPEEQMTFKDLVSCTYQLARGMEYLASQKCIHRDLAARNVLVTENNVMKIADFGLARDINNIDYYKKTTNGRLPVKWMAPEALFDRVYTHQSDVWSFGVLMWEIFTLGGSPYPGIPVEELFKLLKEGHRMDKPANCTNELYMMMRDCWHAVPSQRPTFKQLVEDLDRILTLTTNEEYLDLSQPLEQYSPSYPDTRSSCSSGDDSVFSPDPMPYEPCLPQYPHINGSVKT

PAK1 = PAK1 (Homo sapiens, UniProt Q13153); assay: biochemical; conditions: read-out: % enzyme activity, 1 μM; Run 1, Run 2
PAK1, sequence (Q13153 whole entry): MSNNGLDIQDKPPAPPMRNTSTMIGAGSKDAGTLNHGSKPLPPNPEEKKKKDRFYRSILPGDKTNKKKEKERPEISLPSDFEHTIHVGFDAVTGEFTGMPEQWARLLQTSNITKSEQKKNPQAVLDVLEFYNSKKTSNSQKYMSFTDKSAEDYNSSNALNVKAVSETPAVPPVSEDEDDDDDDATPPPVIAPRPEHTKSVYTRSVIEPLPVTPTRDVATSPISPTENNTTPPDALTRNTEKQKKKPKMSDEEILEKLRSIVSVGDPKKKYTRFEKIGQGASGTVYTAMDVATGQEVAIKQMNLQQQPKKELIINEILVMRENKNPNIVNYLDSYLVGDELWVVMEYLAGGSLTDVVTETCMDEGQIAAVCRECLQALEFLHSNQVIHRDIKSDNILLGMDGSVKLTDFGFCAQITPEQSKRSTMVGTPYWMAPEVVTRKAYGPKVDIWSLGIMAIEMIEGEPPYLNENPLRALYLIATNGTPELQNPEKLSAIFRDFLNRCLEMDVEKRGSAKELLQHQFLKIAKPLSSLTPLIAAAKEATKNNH

SLK/STK2 = SLK/STK2 (Homo sapiens, UniProt Q9H2G2); assay: biochemical; conditions: read-out: % enzyme activity, 1 μM; Run 1, Run 2

FGFR1, sequence (P11362 22-822): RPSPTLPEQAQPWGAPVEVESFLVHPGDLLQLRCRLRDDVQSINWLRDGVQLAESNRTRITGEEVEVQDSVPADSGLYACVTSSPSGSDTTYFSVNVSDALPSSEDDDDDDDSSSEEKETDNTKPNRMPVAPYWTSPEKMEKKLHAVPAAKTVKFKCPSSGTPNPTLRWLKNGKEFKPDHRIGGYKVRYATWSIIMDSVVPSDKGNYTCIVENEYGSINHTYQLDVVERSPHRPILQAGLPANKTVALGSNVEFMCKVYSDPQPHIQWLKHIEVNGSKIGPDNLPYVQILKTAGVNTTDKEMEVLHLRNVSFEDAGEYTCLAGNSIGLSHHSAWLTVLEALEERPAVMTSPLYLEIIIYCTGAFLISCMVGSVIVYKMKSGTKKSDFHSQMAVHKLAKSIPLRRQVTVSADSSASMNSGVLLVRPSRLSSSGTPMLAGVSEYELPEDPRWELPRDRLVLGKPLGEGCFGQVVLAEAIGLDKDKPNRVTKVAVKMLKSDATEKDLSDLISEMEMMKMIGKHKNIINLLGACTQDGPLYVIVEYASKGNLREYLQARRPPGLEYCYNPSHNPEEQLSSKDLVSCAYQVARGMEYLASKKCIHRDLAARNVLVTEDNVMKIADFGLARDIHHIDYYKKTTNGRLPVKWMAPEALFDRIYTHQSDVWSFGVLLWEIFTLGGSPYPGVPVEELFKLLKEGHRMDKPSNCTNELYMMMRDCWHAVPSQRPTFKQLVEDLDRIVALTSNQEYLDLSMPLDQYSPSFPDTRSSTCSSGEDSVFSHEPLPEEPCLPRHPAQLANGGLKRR
DMPK2, sequence (Q6DT37 whole entry): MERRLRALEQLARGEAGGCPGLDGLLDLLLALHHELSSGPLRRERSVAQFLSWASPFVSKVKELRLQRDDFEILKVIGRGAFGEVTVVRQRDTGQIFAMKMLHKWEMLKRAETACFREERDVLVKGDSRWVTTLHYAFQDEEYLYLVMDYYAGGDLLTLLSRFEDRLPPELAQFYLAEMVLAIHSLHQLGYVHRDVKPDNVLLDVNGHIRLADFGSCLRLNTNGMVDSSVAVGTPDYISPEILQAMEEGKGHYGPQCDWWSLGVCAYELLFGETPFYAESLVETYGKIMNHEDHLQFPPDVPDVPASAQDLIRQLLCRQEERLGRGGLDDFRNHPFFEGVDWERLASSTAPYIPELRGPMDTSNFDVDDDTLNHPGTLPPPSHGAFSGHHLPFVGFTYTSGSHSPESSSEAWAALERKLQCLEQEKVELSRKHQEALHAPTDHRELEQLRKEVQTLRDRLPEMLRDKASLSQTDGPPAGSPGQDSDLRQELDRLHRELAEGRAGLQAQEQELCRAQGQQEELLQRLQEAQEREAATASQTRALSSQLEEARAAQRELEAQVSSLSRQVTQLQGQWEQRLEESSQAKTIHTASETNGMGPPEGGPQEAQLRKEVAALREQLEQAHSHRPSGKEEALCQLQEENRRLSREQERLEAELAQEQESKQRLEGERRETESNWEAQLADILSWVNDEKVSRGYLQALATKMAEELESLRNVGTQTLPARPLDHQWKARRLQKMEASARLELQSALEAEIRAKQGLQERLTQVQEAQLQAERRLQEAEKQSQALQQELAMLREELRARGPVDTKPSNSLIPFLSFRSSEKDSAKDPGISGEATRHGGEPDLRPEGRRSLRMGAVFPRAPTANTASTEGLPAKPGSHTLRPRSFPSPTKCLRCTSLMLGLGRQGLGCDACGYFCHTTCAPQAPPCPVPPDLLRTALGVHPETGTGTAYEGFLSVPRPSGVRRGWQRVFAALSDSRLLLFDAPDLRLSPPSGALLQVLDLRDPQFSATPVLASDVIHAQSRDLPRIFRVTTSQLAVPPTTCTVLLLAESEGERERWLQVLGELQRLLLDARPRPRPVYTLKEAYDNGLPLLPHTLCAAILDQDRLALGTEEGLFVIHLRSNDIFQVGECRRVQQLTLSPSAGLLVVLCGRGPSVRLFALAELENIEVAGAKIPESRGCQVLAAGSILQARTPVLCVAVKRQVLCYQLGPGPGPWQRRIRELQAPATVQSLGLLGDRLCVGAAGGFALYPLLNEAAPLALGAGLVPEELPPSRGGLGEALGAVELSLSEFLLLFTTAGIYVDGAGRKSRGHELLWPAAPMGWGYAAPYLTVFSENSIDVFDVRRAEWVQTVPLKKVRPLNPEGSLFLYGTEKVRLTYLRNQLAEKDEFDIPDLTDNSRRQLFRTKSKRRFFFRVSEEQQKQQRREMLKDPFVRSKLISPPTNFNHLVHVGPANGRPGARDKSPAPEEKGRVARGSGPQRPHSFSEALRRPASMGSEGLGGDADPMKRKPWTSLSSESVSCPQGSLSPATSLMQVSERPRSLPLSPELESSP

## COc1cc(-c2cncc(-c3ccc(N4CCN(C)CC4)cc3)c2C)cc(F)c1C(N)=O [Compound 26a, 2-Fluoro-6-methoxy-4-(4-methyl-5-(4-(4-methylpiperazin-1-yl)phenyl)pyridin-3-yl)benzamide]
DMPK2
  remaining activity at 1 µM: 83.8%
FGFR1
  remaining activity at 1 µM: 97.4%
SRPK2
  remaining activity at 1 µM: 97.8%
RIPK5
  % enzyme activity: 82.21%
EPHA5
  remaining activity at 1 µM: 92.2%
EPHA6
  remaining activity at 1 µM: 105%
BMPR2
  % enzyme activity at 1 μM: 89.1% and 88.4%
TIE2/TEK
  remaining activity at 1 µM: 93.8%
FGFR2
  % enzyme activity: 95.46%
PAK1
  remaining activity at 1 µM: 105%
SLK/STK2
  remaining activity at 1 µM: 100%

## COc1cc(-c2cncc(-c3ccc(N4C[C@@H](C)N(C)[C@@H](C)C4)cc3)c2C)cc(F)c1C(N)=O [Compound 26c, 2-Fluoro-6-methoxy-4-(4-methyl-5-(4-((3R,5S)-3,4,5-trimethylpiperazin-1-yl)phenyl)pyridin-3-yl)benzamide]
DMPK2
  remaining activity at 1 µM: 87.5%
FGFR1
  remaining activity at 1 µM: 101%
SRPK2
  remaining activity at 1 µM: 121%
RIPK5
  % enzyme activity: 86.47%
EPHA5
  remaining activity at 1 µM: 92.7%
EPHA6
  remaining activity at 1 µM: 106%
BMPR2
  % enzyme activity at 1 μM: 104% and 100%
TIE2/TEK
  remaining activity at 1 µM: 93.4%
FGFR2
  % enzyme activity: 90.89%
PAK1
  remaining activity at 1 µM: 103%
SLK/STK2
  remaining activity at 1 µM: 101%
